The source of these data is patent US20240245673A1, “Papain-like protease (PLpro) inhibitors” (Pfizer Inc., priority 2022, published 2024).

Like-named read-outs stand apart in the source and are kept apart here.

This assay has as its target SARS-CoV-2 Papain like protease (PLpro) (Severe acute respiratory syndrome coronavirus 2 (2019-nCoV) (SARS-CoV-2), UniProt P0DTD1). As to the kind of experiment: Papain Like Protease (PLpro) biochemical assay with profluorogenic substrate Z-RLRGG-AMC. The note with it: SARS-CoV-2 PLpro 6.25 nM, 25 μM Z-RLRGG-AMC substrate, 60 minute reaction.

As for `CC(=O)Nc1cc([C@@H](C)NC(=O)c2ccccc2C)c2ccccc2n1` [Example 40, (R)—N-(1-(2-acetamidoquinolin-4-yl)ethyl)-2-methylbenzamide], under “read-out: IC50”, the IC50 was 3.16 µM.

In the case of `CNc1cc([C@@H](C)NC(=O)c2ccccc2C)c2ccccc2n1` [Example 41, (R)-2-methyl-N-(1-(2-(methylamino)quinolin-4-yl)ethyl)benzamide], the IC50 (read-out: IC50) stood at 1.01 µM.

Consider `Cc1ccccc1C(=O)N[C@H](C)c1cc(N(C)C)nc2ccccc12` [Example 42, (R)-N-(1-(2-(dimethylamino)quinolin-4-yl)ethyl)-2-methylbenzamide], for which, for the setting “read-out: IC50”, the half-inhibitory concentration (IC50) is 2.17 µM.

Turning to `Cc1ccccc1C(=O)N[C@H](C)c1cc(OCC2CCOC2)nc2ccccc12` (stereo partly drawn) [Example 43, 2-methyl-N-((1R)-1-(2-((tetrahydrofuran-3-yl)methoxy)quinolin-4-yl)ethyl)benzamide], under “read-out: IC50”, the concentration for half-maximal inhibition (IC50) came to 3.08 µM.

In the case of `Cc1ccccc1C(=O)N[C@H](C)c1cc(OCC2COC2)nc2ccccc12` [Example 44, (R)-2-methyl-N-(1-(2-(oxetan-3-ylmethoxy)quinolin-4-yl)ethyl)benzamide], where the note is “read-out: IC50”, the concentration for half-maximal inhibition (IC50) worked out at 3.97 µM.

On to `Cc1ccccc1C(=O)N[C@H](C)c1cc(OCCO)nc2ccccc12` [Example 45, (R)-N-(1-(2-(2-hydroxyethoxy)quinolin-4-yl)ethyl)-2-methylbenzamide], for which, for the setting “read-out: IC50”, the 50% inhibitory concentration (IC50) amounted to 3.48 µM.

`Cc1ccccc1C(=O)N[C@H](C)c1cc(OC2CCOC2)nc2ccccc12` (stereo partly drawn) [Example 46, 2-methyl-N-((1R)-1-(2-((tetrahydrofuran-3-yl)oxy)quinolin-4-yl)ethyl)benzamide]: the half-maximal inhibitory concentration (IC50) (read-out: IC50) was found to be 3.62 µM.

`COCCOc1cc([C@@H](C)NC(=O)c2ccccc2C)c2ccccc2n1` [Example 47, (R)-N-(1-(2-(2-methoxyethoxy)quinolin-4-yl)ethyl)-2-methylbenzamide]: the IC50 (read-out: IC50) was found to be 3.13 µM.

Take `Cc1ccccc1C(=O)N[C@H](C)c1cc(-c2ccn[nH]2)nc2ccccc12` [Example 48, (R)—N-(1-(2-(1H-pyrazol-5-yl)quinolin-4-yl)ethyl)-2-methylbenzamide]: the half-maximal inhibitory concentration (IC50) (read-out: IC50) was 0.28 µM.

Take `Cc1ccccc1C(=O)N[C@H](C)c1cc(-c2cnn(C)c2)nc2ccccc12` [Example 49, (R)-2-methyl-N-(1-(2-(1-methyl-1H-pyrazol-4-yl)quinolin-4-yl)ethyl)benzamide]: the IC50 (read-out: IC50) is 0.151 µM.

For `Cc1ccccc1C(=O)N[C@H](C)c1cc(-c2ccnn2C)nc2ccccc12` [Example 50, (R)-2-methyl-N-(1-(2-(1-methyl-1H-pyrazol-5-yl)quinolin-4-yl)ethyl)benzamide], for the setting “read-out: IC50”, the half-maximal inhibitory concentration (IC50) amounted to 0.489 µM.

Consider `Cc1ccc(NC(=O)[C@H]2CCCCN2)cc1C(=O)NC(C)c1cc(-c2cn[nH]c2)cc2ccccc12` (stereo partly drawn) [Example 51, (2R)—N-(3-((1-(3-(1H-pyrazol-4-yl)naphthalen-1-yl)ethyl)carbamoyl)-4-methylphenyl)piperidine-2-carboxamide], for which the IC50 (read-out: IC50) worked out at 0.019 µM.

`Cc1cc(CNC(=O)c2cscn2)ccc1C(=O)NC(C)c1cc(-c2cnn(C)c2)cc2ccccc12` (centres unmarked) [Example 54, N-(3-methyl-4-((1-(3-(1-methyl-1H-pyrazol-4-yl)naphthalen-1-yl)ethyl)carbamoyl)benzyl)thiazole-4-carboxamide]: where the note is “read-out: IC50”, the half-maximal inhibitory concentration (IC50) was 0.028 µM.

For the molecule `Cc1ccc(N2CCNCC2)cc1C(=O)N[C@H](C)c1cc(-c2cnn(C)c2)nc2ccccc12` [Example 55, (R)-2-methyl-N-(1-(2-(1-methyl-1H-pyrazol-4-yl)quinolin-4-yl)ethyl)-5-(piperazin-1-yl)benzamide], the half-maximal inhibitory concentration (IC50) (read-out: IC50) turned out to be 0.018 µM.

In the case of `Cc1ccc(CN)cc1C(=O)N[C@H](C)c1cc(-c2cc(C(=O)N(C)C)c[nH]2)nc2ccccc12` [Example 56, 5-{4-[(1R)-1-{[5-(aminomethyl)-2-methylphenyl]formamido}ethyl]quinolin-2-yl}-N,N-dimethyl-1H-pyrrole-3-carboxamide], the IC50 (read-out: IC50) turned out to be 0.02 µM.

`CNCc1ccc(C)c(C(=O)N[C@H](C)c2cc(-c3cc(C(=O)OC)c[nH]3)nc3ccccc23)c1` [Example 57, methyl (R)-5-(4-(1-(2-methyl-5-((methylamino)methyl)benzamido)ethyl)quinolin-2-yl)-1H-pyrrole-3-carboxylate]: the half-inhibitory concentration (IC50) (read-out: IC50) is 0.013 µM.

With `Cc1ccccc1C(=O)N[C@H](C)c1cc(-c2cnoc2)nc2ccccc12` [Example 58, (R)-N-(1-(2-(isoxazol-4-yl)quinolin-4-yl)ethyl)-2-methylbenzamide], under “read-out: IC50”, the IC50 amounted to 100 µM.

`Cc1ccc(N2CCNCC2)cc1C(=O)NC(C)c1cc(-c2cnn(C)c2)cc2ccccc12` (centres unmarked) [Example 59, 2-methyl-N-(1-(3-(1-methyl-1H-pyrazol-4-yl)naphthalen-1-yl)ethyl)-5-(piperazin-1-yl)benzamide]: under “read-out: IC50”, the 50% inhibitory concentration (IC50) is 0.025 µM.

With `Cc1ccc(CNS(C)(=O)=O)cc1C(=O)N[C@H](C)c1cc(-c2cnn(C)c2)nc2ccccc12` [Example 61], the IC50 (read-out: IC50) stood at 0.046 µM.

Consider `Cc1cc(CNC(=O)c2ncc[nH]2)ccc1C(=O)NC(C)c1cc(-c2cnn(C)c2)cc2ccccc12` (centres unmarked) [Example 62, N-(3-methyl-4-((1-(3-(1-methyl-1H-pyrazol-4-yl)naphthalen-1-yl)ethyl)carbamoyl)benzyl)-1H-imidazole-2-carboxamide], for which the 50% inhibitory concentration (IC50) (read-out: IC50) worked out at 0.039 µM.

`COC(=O)/C=C/C(=O)NNC(=O)CCc1ccccc1C(=O)N[C@H](C)c1cc(-c2cnn(C)c2)nc2ccccc12` [Example 63, methyl(R,E)-4-(2-(3-(2-((1-(2-(1-methyl-1H-pyrazol-4-yl)quinolin-4-yl)ethyl)carbamoyl)phenyl)propanoyl)hydrazineyl)-4-oxobut-2-enoate]: the IC50 (read-out: IC50) is 0.003 µM.

`COC(=O)/C=C/C(=O)NNC(=O)CCc1ccccc1C(=O)NC(C)c1cc(-c2cnn(C)c2)cc2ccccc12` (centres unmarked) [Example 64, methyl (E)-4-(2-(3-(2-((1-(3-(1-methyl-1H-pyrazol-4-yl)naphthalen-1-yl)ethyl)carbamoyl)phenyl)propanoyl)hydrazineyl)-4-oxobut-2-enoate]: under “read-out: IC50”, the IC50 is 0.005 µM.

With `COC(=O)c1c[nH]c(-c2cc(C(C)NC(=O)c3cc(CN)ccc3C)c3ccccc3c2)c1` (centres unmarked) [Example 70, methyl 5-(4-(1-(5-(aminomethyl)-2-methylbenzamido)ethyl)naphthalen-2-yl)-1H-pyrrole-3-carboxylate], under “read-out: IC50”, the half-maximal inhibitory concentration (IC50) is 0.011 µM.

For `CNC(=O)c1c[nH]c(-c2cc(C(C)NC(=O)c3cc(CN)ccc3C)c3ccccc3c2)c1` (centres unmarked) [Example 71, 5-(4-(1-(5-(aminomethyl)-2-methylbenzamido)ethyl)naphthalen-2-yl)-N-methyl-1H-pyrrole-3-carboxamide], for the setting “read-out: IC50”, the 50% inhibitory concentration (IC50) is 0.016 µM.

Take `Cc1ccc(CN)cc1C(=O)NC(C)c1cc(-c2cc(C(=O)N(C)C)c[nH]2)cc2ccccc12` (centres unmarked) [Example 72, 5-(4-(1-(5-(aminomethyl)-2-methylbenzamido)ethyl)naphthalen-2-yl)-N,N-dimethyl-1H-pyrrole-3-carboxamide]: the IC50 (read-out: IC50) was determined as 0.013 µM.

On to `Cc1ccc(N2CCN(C)CC2)cc1C(=O)NC(C)c1cc(-c2cnn(C)c2)cc2ccccc12` (centres unmarked) [Example 73, 2-methyl-N-(1-(3-(1-methyl-1H-pyrazol-4-yl)naphthalen-1-yl)ethyl)-5-(4-methylpiperazin-1-yl)benzamide], for which, where the note is “read-out: IC50”, the IC50 was determined as 0.022 µM.

For the molecule `Cc1cc(CNCc2cscn2)ccc1C(=O)N[C@H](C)c1cc(-c2cnn(C)c2)nc2ccccc12` [Example 74, (R)-2-methyl-N-(1-(2-(1-methyl-1H-pyrazol-4-yl)quinolin-4-yl)ethyl)-4-(((thiazol-4-ylmethyl)amino)methyl)benzamide], where the note is “read-out: IC50”, the half-inhibitory concentration (IC50) was 0.008 µM.

For `Cc1ccc(CN)cc1C(=O)NC1(c2cc(-c3cnn(C)c3)cc3ccccc23)CC1` [Example 75, 5-(aminomethyl)-2-methyl-N-(1-(3-(1-methyl-1H-pyrazol-4-yl)naphthalen-1-yl)cyclopropyl)benzamide], for the setting “read-out: IC50”, the IC50 came to 0.012 µM.

For `Cc1ccccc1C(=O)NC(C)c1cc(-c2cn[nH]c2)nc2ccccc12` (centres unmarked) [Example 101, 2-methyl-N-{1-[2-(1H-pyrazol-4-yl)quinolin-4-yl]ethyl}benzamide], the half-inhibitory concentration (IC50) (read-out: IC50) was 0.198 µM.

As to `Cc1ccccc1C(=O)NC(C)c1cc(-c2[nH]ncc2C)nc2ccccc12` (centres unmarked) [Example 102], the half-inhibitory concentration (IC50) (read-out: IC50) turned out to be 0.904 µM.

As to `Cc1ccccc1C(=O)NC(C)c1cc(-c2csc(C#N)c2)nc2ccccc12` (centres unmarked) [Example 103, N-{1-[2-(5-cyanothiophen-3-yl)quinolin-4-yl]ethyl}-2-methylbenzamide], under “read-out: IC50”, the IC50 was 0.616 µM.

Take `Cc1ccccc1C(=O)NC(C)c1cc(-c2scc3c2OCCO3)nc2ccccc12` (centres unmarked) [Example 104, N-{1-[2-(2,3-dihydrothieno [3,4-b][1,4]dioxin-5-yl)quinolin-4-yl]ethyl}-2-methylbenzamide]: the half-maximal inhibitory concentration (IC50) (read-out: IC50) is 10 µM.

For `Cc1ccccc1C(=O)NC(C)c1cc(-c2cnn(C(F)F)c2)nc2ccccc12` (centres unmarked) [Example 105, N-(1-{2-[1-(difluoromethyl)-1H-pyrazol-4-yl]quinolin-4-yl}ethyl)-2-methylbenzamide], where the note is “IC50 (μM)”, inhibition was half-maximal at 0.266 µM (IC50).

Take `COCc1cc(-c2cc(C(C)NC(=O)c3ccccc3C)c3ccccc3n2)cs1` (centres unmarked) [Example 106, N-(1-{2-[5-(methoxymethyl)thiophen-3-yl]quinolin-4-yl}ethyl)-2-methylbenzamide]: the IC50 (read-out: IC50) stood at 0.241 µM.

In the case of `Cc1ccccc1C(=O)NC(C)c1cc(-c2cc(C3CC3)nn2C)nc2ccccc12` (centres unmarked) [Example 107, N-{1-[2-(3-cyclopropyl-1-methyl-1H-pyrazol-5-yl)quinolin-4-yl]ethyl}-2-methylbenzamide], the concentration for half-maximal inhibition (IC50) (read-out: IC50) was determined as 0.757 µM.

As for `Cc1ccccc1C(=O)NC(C)c1cc(-c2c(C#N)cnn2C)nc2ccccc12` (centres unmarked) [Example 108, N-{1-[2-(4-cyano-1-methyl-1H-pyrazol-5-yl)quinolin-4-yl]ethyl}-2-methylbenzamide], the half-inhibitory concentration (IC50) (read-out: IC50) came to 0.931 µM.

Regarding `COc1cc(-c2cc(C(C)NC(=O)c3ccccc3C)c3ccccc3n2)ccn1` (centres unmarked) [Example 109], the IC50 (read-out: IC50) amounted to 0.28 µM.

For the molecule `CCn1cc(-c2cc(C(C)NC(=O)c3ccccc3C)c3ccccc3n2)cn1` (centres unmarked) [Example 110, N-{1-[2-(1-ethyl-1H-pyrazol-4-yl)quinolin-4-yl]ethyl}-2-methylbenzamide], it took 0.224 µM to reach half-maximal inhibition (IC50 (μM)) (IC50).

Usually IC50 stands for the concentration that gives 50% inhibition.
